Results published in patent US9976141B2, “Compositions and methods for inhibiting gene expression of Hif2alpha” (Arrowhead Madison Inc., priority 2015, dated 2018).

Test system: human (tumor) Hif2α (EPAS1) mRNA
Assay: Hif2α knockdown in orthotopic RCC tumor bearing mice, single injection of RNAi trigger-delivery polymer conjugate, RT-qPCR (Table 7)
Format: in vivo
Conditions: single tail vein injection, relative to isotonic glucose
Method in brief: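 Female athymic nude mice carried orthotopic A498-SEAP ccRCC kidney tumours, used 5–6 weeks after implantation. They received one tail-vein injection of RGD-targeted Hif2α RNAi trigger–polymer conjugate or isotonic glucose. Tumour Hif2α mRNA was measured by TaqMan RT-qPCR normalised to CycA (ΔΔCT) and expressed relative to glucose-treated mice.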

[1] = RNAi trigger 80 μg, polymer 126 400 μg
[2] = RNAi trigger 50 μg, polymer 064 125 μg

Substance: AD02691 (antisense UUUCAUGAAAUCGUUACGUUG; sense ACGUAACGAUUUCAUGAAAT; Hif2alpha RNAi agent antisense strand; modified_base 2,4,6,8,10,14,16,18 /mod_base = “2′-deoxy-2′-fluoro corresponding nucleoside”; modified_base 1,3,5,7,9,11,12,13,15,17,19,20,21 /mod_base = “2′-O-methyl corresponding nucleoside”; modified_base 2,3,20,21 /mod_base = “5′-phosphorothioate corresponding nucleotide”; Hif2alpha RNAi agent sense strand; modified_base 1,3,5,7,8,9,11,13,15,17 /mod_base = “2′-deoxy-2′-fluoro corresponding nucleoside”; modified_base 2,4,6,10,12,14,16,18,19 /mod_base = “2′-O-methyl corresponding nucleoside”; modified_base 20 /mod_base = “3′-3′-linked nucleotide”; modi)
- Relative Expression day 4 (Hif2α mRNA in kidney tumor) (RNAi trigger 75 μg, polymer 064 187.5 μg): 0.124

Substance: AD01033 (antisense TAAGUUAAGCUCCCAUACATT; sense UGUAUGGGAGCUUAACUUAT; Hif2alpha RNAi agent antisense strand; modified_base 2,4,6,8,10,12,14,16,18 /mod_base = “2′-deoxy-2′-fluoro corresponding nucleoside”; modified_base 3,5,9,11,13,15,17,19 /mod_base = “2′-O-methyl corresponding nucleoside”; modified_base 7 /mod_base = “2′-3′ seco corresponding nucleotide”; modified_base 21 /mod_base = “5′-phosphorothioate corresponding nucleotide”; Hif2alpha RNAi agent sense strand; modified_base 1,3,5,7,9,11,13,15,17,19 /mod_base = “2′-deoxy-2′-fluoro corresponding nucleoside”; modified_base 2,4,6,8,10,12,14,16,18 /mod_base = “2′-O-methyl corresponding nucleoside”; modified_b)
- Relative Expression day 4 (Hif2α mRNA in kidney tumor) [1]: 1.08

Substance: AD01028 (antisense TAAAUCGUUACGUUGACAGTT; sense CUGUCAACGUAACGAUUUAT; Hif2alpha RNAi agent antisense strand; modified_base 2,4,6,8,10,12,14,16,18 /mod_base = “2′-deoxy-2′-fluoro corresponding nucleoside”; modified_base 3,5,7,9,11,13,15,17,19 /mod_base = “2′-O-methyl corresponding nucleoside”; modified_base 21 /mod_base = “5′-phosphorothioate corresponding nucleotide”; Hif2alpha RNAi agent sense strand; modified_base 1,3,5,7,9,11,13,15,17,19 /mod_base = “2′-deoxy-2′-fluoro corresponding nucleoside”; modified_base 2,4,6,8,10,12,14,16,18 /mod_base = “2′-O-methyl corresponding nucleoside”; modified_base 20 /mod_base = “3′-3′-linked nucleotide”; modified_base 1 /mo)
- Relative Expression day 4 (Hif2α mRNA in kidney tumor) [1]: 0.39

Substance: AD01293 (antisense TUUCAUGAAAUCGUUACGUUGGCUGU; sense UAUAUCAACGUAACGAUUUCAUGAAA; Hif2alpha RNAi agent antisense strand; modified_base 25 modified base = “2′-hydroxy corresponding nucleoside”; modified_base 2,4,6,8,10,14,16,18,20 /mod_base = “2′-deoxy-2′-fluoro corresponding nucleoside”; modified_base 3,5,7,9,11,12,13,15,17,19,21,22,23,24,26 /mod_base = “2′-O-methyl corresponding nucleoside”; modified_base 2,3,23,24 /mod_base = “5′-phosphorothioate corresponding nucleotide”; Hif2alpha RNAi agent sense strand; modified_base 2,4 modified base = “2′-hydroxy corresponding nucleoside”; modified_base 6,8,10,12,14,15,16,18,20,22,24,26 /mod_base = “2′-deoxy-2′-fluoro correspondin)
- Relative Expression day 4 (Hif2α mRNA in kidney tumor) [1]: 0.20

Substance: AD01296 (antisense TUUCAUGAAAUCGUUACGUUGGCUTT; sense UAUAUCAACGUAACGAUUUCAUGAAA; Hif2alpha RNAi agent antisense strand; modified_base 2,4,6,8,10,14,16,18,20 /mod_base = “2′-deoxy-2′-fluoro corresponding nucleoside”; modified_base 3,5,7,9,11,12,13,15,17,19,21,22,23,24 /mod_base = “2′-O-methyl corresponding nucleoside”; modified_base 2,3,25,26 /mod_base = “5′-phosphorothioate corresponding nucleotide”; Hif2alpha RNAi agent sense strand; modified_base 2,4 modified base = “2′-hydroxy corresponding nucleoside”; modified_base 6,8,10,12,14,15,16,18,20,22,24,26 /mod_base = “2′-deoxy-2′-fluoro corresponding nucleoside”; modified_base 1,3,5,7,9,11,13,17,19,21,23,25 /mod_base = “2′)
- Relative Expression day 4 (Hif2α mRNA in kidney tumor) [1]: 0.21

Substance: AD01024 (antisense TCUAGCAACAAAACCUUAATT; sense UUAAGGUUUUGUUGCUAGAT; Hif2alpha RNAi agent antisense strand; modified_base 2,4,6,8,10,12,14,16,18 /mod_base = “2′-deoxy-2′-fluoro corresponding nucleoside”; modified_base 3,5,9,11,13,15,17,19 /mod_base = “2′-O-methyl corresponding nucleoside”; modified_base 7 /mod_base = “2′-3′ seco corresponding nucleotide”; modified_base 21 /mod_base = “5′-phosphorothioate corresponding nucleotide”; Hif2alpha RNAi agent sense strand; modified_base 1,3,5,7,9,11,13,15,17,19 /mod_base = “2′-deoxy-2′-fluoro corresponding nucleoside”; modified_base 2,4,6,8,10,12,14,16,18 /mod_base = “2′-O-methyl corresponding nucleoside”; modified_b)
- Relative Expression day 4 (Hif2α mRNA in kidney tumor) [1]: 0.51

Substance: AD03191 (antisense AGUAAAACAAUUGUGUACUUUAA; sense AAAGUACACAAUUGUUUUACT; Hif2alpha RNAi agent antisense strand; modified_base 2,4,6,8,10,14,16,18 /mod_base = “2′-deoxy-2′-fluoro corresponding nucleoside”; modified_base 1,3,5,7,9,11,12,13,15,17,19,20,21,22,23 /mod_base = “2′-O-methyl corresponding nucleoside”; modified_base 2,3,22,23 /mod_base = “5′-phosphorothioate corresponding nucleotide”; Hif2alpha RNAi agent sense strand; modified_base 7,9,10,11 /mod_base = “2′-deoxy-2′-fluoro corresponding nucleoside”; modified_base 1,2,3,4,5,6,8,12,13,14,15,16,17,18,19,20 /mod_base = “2′-O-methyl corresponding nucleoside”; modified_base 21 /mod_base = “3′-3′-linked nucleoti)
- Relative Expression day 4 (Hif2α mRNA in kidney tumor) [2]: 0.307

Substance: AD02858 (antisense UUUCAUGAAAUCGUUACGUUG; sense ACGUAACGAUUUCAUGAAAT; Hif2alpha RNAi agent antisense strand; modified_base 2,3,4,8,10,14 /mod_base = “2′-deoxy-2′-fluoro corresponding nucleoside”; modified_base 1,5,6,7,9,11,12,13,15,16,17,18,19,20,21 /mod_base = “2′-O-methyl corresponding nucleoside”; modified_base 2,3,20,21 /mod_base = “5′-phosphorothioate corresponding nucleotide”; Hif2alpha RNAi agent sense strand; modified_base 7,8,9 /mod_base = “2′-deoxy-2′-fluoro corresponding nucleoside”; modified_base 1,2,3,4,5,6,10,11,12,13,14,15,16,17,18,19 /mod_base = “2′-O-methyl corresponding nucleoside”; modified_base 20 /mod_base = “3′-3′-linked nucleotide”; modi)
- Relative Expression day 4 (Hif2α mRNA in kidney tumor) [2]: 0.192

Substance: AD01887 (antisense UCUAGCAACAAAACCUUAATT; sense UUAAGGUUUUGUUGCUAGAT; Hif2alpha RNAi agent antisense strand; modified_base 2,4,6,9,10,13,14,16,18 /mod_base = “2′-deoxy-2′-fluoro corresponding nucleoside”; modified_base 1,3,5,7,8,11,12,15,17,19 /mod_base = “2′-O-methyl corresponding nucleoside”; modified_base 2,3,21 /mod_base = “5′-phosphorothioate corresponding nucleotide”; Hif2alpha RNAi agent sense strand; modified_base 3,5,8,9,13,15,17 /mod_base = “2′-deoxy-2′-fluoro corresponding nucleoside”; modified_base 1,2,4,6,7,10,11,12,14,16,18,19 /mod_base = “2′-O-methyl corresponding nucleoside”; modified_base 20 /mod_base = “3′-3′-linked nucleotide”; modified_base)
- Relative Expression day 4 (Hif2α mRNA in kidney tumor) (RNAi trigger 100 μg, polymer 064 250 μg): 0.329
